# Experimental data taken from article PMC10584170, “Machine learning-based phenotypic imaging to characterise the targetable biology of Plasmodium falciparum male gametocytes for the development of transmission-blocking antimalarials” (PLOS Pathogens, 2023).
# pIC50: −log10 of the molar value. Read-outs that look alike come from different tables or passages of the source.
# How the values were obtained:
# [1] = test system: P. falciparum female gametocytes; test: P. falciparum Dual Gamete Formation Assay (PfDGFA), female readout (Pfs25-positive female gametes); assay type: cell-based, Plasmodium falciparum NF54; conditions: for Selectivity ratio F: HepG2 Tox50 versus female IC50; for HitlevelF: number of replicates with >50% inhibition in the female readout; for pIC50: PfDGFA, 24 h incubation with gametocytes before induction, female gamete readout, read-out: Female IC50
# Outline: (§1)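 Two sex-specific readouts come from one well: male exflagellation centres recorded by brightfield video right after activation, and female gametes scored by Cy3-anti-Pfs25 fluorescence after 24 h at 28°C.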
# [2] = test system: P. falciparum male gametocytes; test: P. falciparum Dual Gamete Formation Assay (PfDGFA), male readout (exflagellation); assay type: cell-based, Plasmodium falciparum NF54; conditions: for Selectivity Ratio M: HepG2 Tox50 versus male IC50; for pIC50: PfDGFA, 24 h incubation with gametocytes before induction, exflagellation readout, read-out: Male IC50; for HitlevelM: number of replicates with >50% inhibition in the male readout
# Outline: as §1
# HepG2 cells = test: HepG2 cytotoxicity counter-screen; conditions: cytotoxic activity against HepG2 cells
# [3] = PfDGFA at 2µM, 24h preincubation with gametocytes, average of replicates
# [4] = PfDGFA at 2µM, 24h preincubation with gametocytes, replicate R1
# [5] = PfDGFA at 2µM, 24h preincubation with gametocytes, replicate R3
# [6] = PfDGFA at 2µM, 24h preincubation with gametocytes, replicate R4
# [7] = 2µM, 24h preincubation with gametocytes prior to induction of gametogenesis, average of replicates
# [8] = 2µM, 24h preincubation with gametocytes prior to induction of gametogenesis, replicate R1
# [9] = 2µM, 24h preincubation with gametocytes prior to induction of gametogenesis, replicate R3
# [10] = 2µM, 24h preincubation with gametocytes prior to induction of gametogenesis, replicate R4
# [11] = 2µM, 24h preincubation with gametocytes, average of replicates
# [12] = 2µM, 24h preincubation with gametocytes, replicate R1
# [13] = 2µM, 24h preincubation with gametocytes, replicate R3
# [14] = 2µM, 24h preincubation with gametocytes, replicate R4
structure (smiles),measurement,setting,value
CN(C)CC(O)COc1ccc(Nc2ncc([N+](=O)[O-])c(Nc3ccccc3O)n2)cc1.O=C(O)C(F)(F)F (stereo not shown) [TCMDC-141399],Selectivity ratio F,[1],0.27
same,Average inhibition female (%),[1]; [3],9.6%
same,% inhibition female (individual replicates) R1,[1]; [4],0.18%
same,% inhibition female (individual replicates) R3,[1]; [5],2.4%
same,% inhibition female (individual replicates) R4,[1]; [6],9.1%
same,HitlevelF,[1]; 2µM,0
same,Selectivity Ratio M,[2],1.47
same,Average inhibition male (%),[2]; [3],87.0%
same,% inhibition male (individual replicates) R1,[2]; [4],80.9%
same,% inhibition male (individual replicates) R4,[2]; [6],85.8%
same,pIC50,[2],5.74
same,HitlevelM,[2]; 2µM,3
same,Tox50,HepG2 cells,2.69 µM
CS(=O)(=O)O.FC(F)(F)COc1ccc2ccccc2c1CCNCCCCNCCc1c(OCC(F)(F)F)ccc2ccccc12 [TCMDC-137317],Selectivity ratio F,[1],0.26
same,Average inhibition female (%),[1]; [3],40.6%
same,% inhibition female (individual replicates) R1,[1]; [4],30.1%
same,% inhibition female (individual replicates) R3,[1]; [5],13.1%
same,% inhibition female (individual replicates) R4,[1]; [6],36.4%
same,pIC50,[1],5.52
same,HitlevelF,[1]; 2µM,1
same,Selectivity Ratio M,[2],0.53
same,Average inhibition male (%),[2]; [3],88.2%
same,% inhibition male (individual replicates) R1,[2]; [4],92.7%
same,% inhibition male (individual replicates) R3,[2]; [5],68.3%
same,% inhibition male (individual replicates) R4,[2]; [6],96.2%
same,pIC50,[2],5.82
same,HitlevelM,[2]; 2µM,4
same,Tox50,HepG2 cells,0.8 µM
CN(C)CCNCc1ccc(-c2ccc3c(Nc4ccc(Cl)cc4F)ccnc3c2)o1 [TCMDC-138391],Average inhibition female (%),[1]; [7],37.2%
same,% inhibition female (individual replicates) R1,[1]; [8],39.6%
same,% inhibition female (individual replicates) R3,[1]; [9],32.6%
same,% inhibition female (individual replicates) R4,[1]; [10],31.7%
same,HitlevelF,"[1]; 2µM, 24h preincubation",0
same,Selectivity ratio F,[1],2.31
same,pIC50,[1],5.25
same,Average inhibition male (%),[2]; [7],55.2%
same,% inhibition male (individual replicates) R1,[2]; [8],62.6%
same,% inhibition male (individual replicates) R3,[2]; [9],53.9%
same,% inhibition male (individual replicates) R4,[2]; [10],79.6%
same,HitlevelM,"[2]; 2µM, 24h preincubation",3
same,Selectivity Ratio M,[2],7.38
same,pIC50,[2],5.76
same,Tox50,HepG2 cells,12.91 µM
Nc1nc(N)c2c(ccc3[nH]c(-c4ccccc4Cl)nc32)n1 [TCMDC-137840],Average inhibition female (%),[1]; [11],54.2%
same,% inhibition female (individual replicates) R1,[1]; [12],66.8%
same,% inhibition female (individual replicates) R3,[1]; [13],50.3%
same,% inhibition female (individual replicates) R4,[1]; [14],52.5%
same,Selectivity ratio F,[1],0.88
same,pIC50,[1],5.63
same,Average inhibition male (%),[2]; [11],99.1%
same,% inhibition male (individual replicates) R1,[2]; [12],101.1%
same,% inhibition male (individual replicates) R3,[2]; [13],94.6%
same,% inhibition male (individual replicates) R4,[2]; [14],101.3%
same,Selectivity Ratio M,[2],2.01
same,pIC50,[2],5.99
same,Tox50,HepG2 cells,2.04 µM
CNC(=O)c1cnc(Nc2ccc(N3CCN(C)CC3)cc2)nc1Nc1ccccc1OC.O=C(O)C(F)(F)F [TCMDC-141382],Selectivity ratio F,[1],3.56
same,inhibition at 2 µM,"[1]; Plasmodium falciparum, PfDGFA at 2µM, 24h preincubation with gametocytes, average of replicates, read-out: Average inhibition female (%)",0.5%
same,inhibition at 2 µM,"[1]; Plasmodium falciparum, PfDGFA at 2µM, 24h preincubation with gametocytes, replicate R1, read-out: % inhibition female (individual replicates) R1",-10.9%
same,inhibition at 2 µM,"[1]; Plasmodium falciparum, PfDGFA at 2µM, 24h preincubation with gametocytes, replicate R2, read-out: % inhibition female (individual replicates) R2",1.1%
same,inhibition at 2 µM,"[1]; Plasmodium falciparum, PfDGFA at 2µM, 24h preincubation with gametocytes, replicate R3, read-out: % inhibition female (individual replicates) R3",15.6%
same,inhibition at 2 µM,"[1]; Plasmodium falciparum, PfDGFA at 2µM, 24h preincubation with gametocytes, replicate R4, read-out: % inhibition female (individual replicates) R4",-3.9%
same,pIC50,[1]; Plasmodium falciparum,< 5.00
same,HitlevelF,[1]; 2µM,0
same,Selectivity Ratio M,[2],29.58
same,inhibition at 2 µM,"[2]; Plasmodium falciparum, PfDGFA at 2µM, 24h preincubation with gametocytes, average of replicates, read-out: Average inhibition male (%)",82.8%
same,inhibition at 2 µM,"[2]; Plasmodium falciparum, PfDGFA at 2µM, 24h preincubation with gametocytes, replicate R1, read-out: % inhibition male (individual replicates) R1",83.2%
same,inhibition at 2 µM,"[2]; Plasmodium falciparum, PfDGFA at 2µM, 24h preincubation with gametocytes, replicate R2, read-out: % inhibition male (individual replicates) R2",85.9%
same,inhibition at 2 µM,"[2]; Plasmodium falciparum, PfDGFA at 2µM, 24h preincubation with gametocytes, replicate R3, read-out: % inhibition male (individual replicates) R3",82.1%
same,inhibition at 2 µM,"[2]; Plasmodium falciparum, PfDGFA at 2µM, 24h preincubation with gametocytes, replicate R4, read-out: % inhibition male (individual replicates) R4",80.2%
same,pIC50,[2]; Plasmodium falciparum,5.92
same,HitlevelM,[2]; 2µM,4
same,Tox50,HepG2 cells,35.63 µM
